Reference: US20090012152A1, “Use of Tetramic Acid Derivatives for Controlling Insects from the Genus of the Plane Lice (Sternorrhyncha)” (Bayer CropScience Aktiengesellschaft, priority 2005, published 2009)

Tests used:
Format in all cases: in vivo
[1] = system: Paratrioza cockerelli; assay: Example 7: bell peppers treated against Paratrioza cockerelli; conditions: nymphs on leaves, g a.i./ha: imidacloprid 52.6, I-4 72, dimethoate 561; for Kill (%) 7 d: 7 d after treatment; for Kill (%) 15 d: 15 d after treatment
Experimental: In four replications, plots of a size of about 7 m^2 with bell peppers of the cultivar “Jupiter” are treated against Paratrioza cockerelli. The application is carried out with a knapsack sprayer operated with pressurized air. Here, the active compound Example (I-4) (240 SC) is applied in a tank mix with 0.2% a.i. of rapeseed oil methyl ester (500 EW) and the commercial standards imidacloprid 192 SC and dimethoate (480 EC) are applied in a tank mix with 0.125% Induce at the stated application rates. The application is carried out with an application rate of 467 l of water/ha.
Evaluation is carried out 7 and 15 days after the treatment by rating the kill of the animals (nymphs) on the leaves.

[2] = system: Bemisia tabaci; assay: Example 32: bell peppers treated against Bemisia tabaci; conditions: larvae on leaves, % a.i.: imidacloprid 0.02, I-9, I-2, I-11 0.0144; for Kill (%) 7 d: 7 d after second treatment; for Kill (%) 14 d: 14 d after second treatment; for Kill (%) 22 d: 22 d after second treatment
Experimental: In three replications, plots of a size of 10 m^2 with bell peppers of the cultivar “Italiano” are treated against Bemisia tabaci. The application is carried out using a motor-operated knapsack sprayer. Here, the active compounds Example (I-9) (240 SC), Example (I-2) (60 SC) and Example (I-11) (60 SC) and the commercial standard imidacloprid (200 SL) are applied at the stated application rates. Three applications at an interval of 14 or 15 days are carried out, at an application rate of 1000 or 1100 l of water/ha.
Evaluation is carried out 7, 14 and 22 days after the second treatment by rating the kill of the animals (larvae) on the leaves.

[3] = system: Aphis pomi; assay: Example 40: apple trees treated against Aphis pomi; conditions: population on shoots, % a.i.: imidacloprid 0.007, I-9 0.0144, I-4 0.0144; for Kill (%) 14 d: 14 d after treatment; for Kill (%) 21 d: 21 d after treatment
Experimental: In three replications, three about 22-year-old apple trees of the cultivar “Golden Delicious” are treated eradicatively against Dysaphis plantaginea and Aphis pomi. The application is carried out using a motor-operated barrow-mounted sprayer. Here, the active compounds Example (I-9) (240 SC) and Example (I-4) (240 SC) in the stated amount are tested against the commercial standard imidacloprid (200 SL), at the stated application rate. The application rate is 1200 l of water/ha.
Evaluation is carried out 14 d and 21 d after the treatment by rating the kill of the population on the shoots.

[4] = system: Dysaphis plantaginea; assay: Example 41: apple trees treated against Dysaphis plantaginea (Henderson and Tilton); conditions: live animals on shoots, % a.i.: imidacloprid 0.007, I-9 0.0144, I-2 0.0144; for Effect (%) 7 d: 7 d after treatment; for Effect (%) 14 d: 14 d after treatment
Experimental: (§1) In three replications, three about 8-year-old apple trees of the cultivar “Golden Delicious” are treated eradicatively against Dysaphis plantaginea and Aphis pomi. The application is carried out using a motor-operated barrow-mounted sprayer. Here, the active compounds Example (I-9) (240 SC) and Example (I-2) (240 SC) in the stated amount are tested against the commercial standard imidacloprid (200 SL), at the stated application rate. The application rate is 1200 l of water/ha.
(§2) Evaluation is carried out before and also 7 d and 14 d after the treatment by counting the live animals on the shoots. The efficacy is then calculated by calculating the effect on the population in percent according to Henderson and Tilton.

[5] = system: Aphis pomi; assay: Example 41: apple trees treated against Aphis pomi (Henderson and Tilton); conditions: live animals on shoots, % a.i.: imidacloprid 0.007, I-9 0.0144, I-2 0.0144; for Effect (%) 7 d: 7 d after treatment; for Effect (%) 14 d: 14 d after treatment
Experimental: as §1, §2

[6] = system: Macrosiphum euphorbiae; assay: Example 43: aubergines treated against Macrosiphum euphorbiae; conditions: nymphs on leaves, % a.i.: imidacloprid 0.014, I-9, I-2, I-11 0.0144; for Kill (%) 7 d: 7 d after second treatment; for Kill (%) 14 d: 14 d after second treatment
Experimental: In three replications, plots of a size of 10 m^2 with aubergines of the cultivar “F 100” are treated against Macrosiphum euphorbiae. The application is carried out using a knapsack sprayer operated with pressurized air. Here, the active compounds Example (I-9) (60 SC), Example (I-2) (60 SC) and Example (I-11) (60 SC) and the commercial standard imidacloprid (70 WG) are tested at the stated application rates. Three applications are carried out, at an interval of 7 or 8 days. The application rate is 1000 l of water/ha.
Evaluation is carried out 7 and 14 days after the second treatment by rating the kill of the nymphs on the leaves.

[7] = system: Phorodon humuli; assay: Example 44: hop plants treated against hop aphid; conditions: on leaves, % a.i.: imidacloprid 0.0053, I-9 0.0036, I-4 0.0084; for Kill (%) 6 d: 6 d after treatment; for Kill (%) 46 d: 46 d after treatment
Experimental: In two replications, about 4-year-old hop plants of the cultivar “Spalter” are treated against the hop aphid Phorodon humuli. The application is carried out using a knapsack sprayer operated with pressurized air. Here, the active compounds Example (I-9) (240 SC) and Example (I-4) (240 SC), in a tank mix with 0.1% a.i. of rapeseed oil methyl ester (500 EW), and the standard imidacloprid are applied at the stated application rates. The application rate is 1200 l of water/ha.
The first evaluation is carried out 6 days and the last evaluation 46 days after the treatment by rating the kill of the animals on the leaves.

[8] = system: Toxoptera citricida; assay: Example 45: orange tree treated against Toxoptera citricida; conditions: on leaves, % a.i.: imidacloprid 0.0125, I-9 0.0144, I-4 0.0144; for Kill (%) 6 d: 6 d after treatment; for Kill (%) 20 d: 20 d after treatment
Experimental: In three replications, in each case one about 8-year-old orange tree of the cultivar “Navel” is treated against Toxoptera citricida. Here, the active compounds Example (I-9) (240 SC) and Example (I-4) (240 SC), in a tank mix with 0.1% a.i. of Marlipal, are tested against the commercial standard imidacloprid (350 SC), at the stated application rates. The application is carried out using a motor-operated knapsack sprayer, the application rate being 6.7 l of water/plant.
Evaluation is carried out 6 and 20 days after the treatment by rating the kill of the animals on the leaves.

[9] = system: Aphis fabae; assay: Example 51: broad beans treated against Aphis fabae; conditions: nymphs on leaves, g a.i./ha: Pirimor 250, I-9 36, I-2 36, I-4 42; for Kill (%) 7 d: 7 d after treatment; for Kill (%) 15 d: 15 d after treatment
Experimental: In three replications, plots of a size of 10 m^2 with broad beans of the cultivar “Fruhe Weisskeimige” are treated against Aphis fabae. The application is carried out using a knapsack sprayer operated with pressurized air. Here, the active compounds Example (I-9) (240 SC), Example (I-2) (240 SC) and Example (I-4) (240 SC), in a tank mix with 0.2% of rapeseed oil methyl ester (500 EW), and the commercial standard Pirimor (50 WG) are tested at the stated application rates. Application is carried out once. The application rate is 500 l of water/ha.
Evaluation is carried out 7 and 15 days after the treatment by rating the kill of the nymphs on the leaves.

O=[N+]([O-])NC1=NCCN1Cc1ccc(Cl)nc1 [imidacloprid, reference compound]
Kill (%) 7 d [1]: 90% | Kill (%) 15 d [1]: 0% | Kill (%) 7 d [2]: 75.8% | Kill (%) 14 d [2]: 67.2% | Kill (%) 22 d [2]: 69.4% | Kill (%) 14 d [3]: 93.6% | Kill (%) 21 d [3]: 92.5% | Effect (%) 7 d [4]: 99.6% | Effect (%) 14 d [4]: 99.5% | Effect (%) 7 d [5]: 99% | Effect (%) 14 d [5]: 83.5% | Kill (%) 7 d [6]: 100% | Kill (%) 14 d [6]: 100% | Kill (%) 6 d [7]: 99% | Kill (%) 46 d [7]: 97.6% | Kill (%) 6 d [8]: 99% | Kill (%) 20 d [8]: 94%

CCOC(=O)OC1=C(c2cc(C)ccc2Br)C(=O)NC12CCC(OC)CC2 (centres unmarked) [Example (I-2)]
Kill (%) 7 d [2]: 84.7% | Kill (%) 14 d [2]: 92.6% | Kill (%) 22 d [2]: 85.6% | Effect (%) 7 d [4]: 92.3% | Effect (%) 14 d [4]: 99.2% | Effect (%) 7 d [5]: 99.1% | Effect (%) 14 d [5]: 97.1% | Kill (%) 7 d [6]: 99% | Kill (%) 14 d [6]: 91% | Kill (%) 7 d [9]: 98.6% | Kill (%) 15 d [9]: 100%

CCOC(=O)OC1=C(c2cc(C)ccc2C)C(=O)NC12CCC(OC)CC2 (centres unmarked) [Example (I-4)]
Kill (%) 7 d [1]: 90% | Kill (%) 15 d [1]: 100% | Kill (%) 14 d [3]: 96.9% | Kill (%) 21 d [3]: 98.8% | Kill (%) 6 d [7]: 95% | Kill (%) 46 d [7]: 98.7% | Kill (%) 6 d [8]: 97% | Kill (%) 20 d [8]: 97% | Kill (%) 7 d [9]: 100% | Kill (%) 15 d [9]: 100%
